Measured values as given in patent US20060063842A1, “Hypogastric and/or perineal pain-relieving agent” (priority 2002, published 2006).
Where a name gives a salt, the structure may show the parent alone.

Tested on: patients with lower urinary tract symptoms
Assay: Clinical test (12 week study) to patients suffering from lower urinary tract symptoms: pain scores
Type: in vivo
Experimental: Clinical Test (12 Week Study) to Patients Suffering from Lower Urinary Tract Symptoms A clinical study was conducted in patients with lower urinary tract symptoms under the conditions shown below. Subjects: Eighteen patients diagnosed to have urinary dysfunction without accompanying obvious organic or neurological abnormality in lower urinary tract. Study drug and the method of administration: Until Week 4, capsules each containing 0.2 mg tamsulosin hydrochloride were orally administered, one capsule/time/day, after breakfast. In Week 4, the doses for later than Week 4 were determined by referring to the Table below, and the doses determined were orally administered once daily after breakfast. <Criterion of Dose after 4 Weeks> [table] Study period: 12 weeks Observed items: Evaluations and measurements were made for the following items before and after the administration. (2) Pains The pain scores shown below were evaluated before administration, and 4 and 12 weeks after administration. <1> Hypogastric/perineal pain “How strong is hypogastric/perineal pain?” • 0: No pain • 1: Slightly painful • 2: Painful • 3: Quite painful • 4: Very painful <2> Lower backache “How strong is lower backache?” • 0: No pain • 1: Slightly painful • 2: Painful • 3: Quite painful • 4: Very painful

CCOc1ccccc1OCCN[C@H](C)Cc1ccc(OC)c(S(N)(=O)=O)c1 [tamsulosin hydrochloride, (R)(−)-5-[2-[[2-(o-ethoxyphenoxy)ethyl]amino]propyl]-2-methoxybenzenesulfonamide]
improvement of hypogastric/perineal pain or lower backache in patients with urinary dysfunction (overall conclusion) (12 week clinical study, 18 patients, oral 0.2 or 0.4 mg/day): effective | number of patients with hypogastric/perineal pain improved to score 0 (no pain) (of 7 patients with score 1 (slightly painful) before administration, evaluation in Weeks 4 and 12, oral 0.2 or 0.4 mg/day once daily after breakfast): 6 patients | number of patients with hypogastric/perineal pain unchanged (score 1, slightly painful) (of 7 patients with score 1 before administration, evaluation in Weeks 4 and 12, oral 0.2 or 0.4 mg/day): 1 patient | lower backache score after administration (the only 1 patient with lower backache (score 1, slightly painful) before administration, evaluation in Weeks 4 and 12, oral 0.2 or 0.4 mg/day): improved to score 0 (no pain)
